The source of these data is patent US9150575B2, “Piperidinylpyrazolopyridine derivative” (Daiichi Sankyo Company, Limited, priority 2012, dated 2015).

One assay concerns cynomolgus monkey. Put plainly: Drug Efficacy Test in Cynomolgus Monkeys. The assay is classed as in vivo. As to conditions: oral, single dose of 10 mg/kg, compared with before administration, from AUC before administration and 24 hours after administration. As to the method:
Each test drug was dissolved in a propylene glycol (Sigma-Aldrich Corp.)-Tween 80 (Sigma-Aldrich Corp.) mixed solution [4/1 (v/v)] or a 0.5% (w/v) methylcellulose aqueous solution, and the solution was orally administered to a cynomolgus monkey for 1 or 7 days. At 1 or 7 day of administration period, blood was collected before administration and after administration, and plasma was obtained. The content of cholesterol in the plasma was measured using a commercially available assay kit (Cholesterol-E Wako, Wako Pure Chemical Industries, Ltd.). The lipoprotein profile was analyzed by HPLC (column: LipopropakXL, manufactured by Tosoh Corp.). The contents of HDL cholesterol and non-HDL cholesterol were calculated according to the following calculation expression: Content of HDL cholesterol=Content of cholesterol in the plasma×(Peak area of HDL cholesterol/Total sum of peaks) Content of non-HDL cholesterol=Content of cholesterol in the plasma×(Peak area of non-HDL cholesterol/Total sum of peaks)
The rate (%) of increase in HDL level after the administration of a single dose of 10 mg/kg compared with before administration was determined from AUC before administration and 24 hours after administration.

For another assay, the target named is T1, LCAT (Homo sapiens, UniProt P04180).
T1 construct: The obtained fraction was dialyzed against phosphate-buffered saline (pH 7.4) and used as an enzyme source and an acceptor for LCAT; from tissue; host or cells: HDL3 fraction (1.125<specific gravity<1.210 g/mL) of plasma from a healthy person
T1 sequence (P04180 25-440): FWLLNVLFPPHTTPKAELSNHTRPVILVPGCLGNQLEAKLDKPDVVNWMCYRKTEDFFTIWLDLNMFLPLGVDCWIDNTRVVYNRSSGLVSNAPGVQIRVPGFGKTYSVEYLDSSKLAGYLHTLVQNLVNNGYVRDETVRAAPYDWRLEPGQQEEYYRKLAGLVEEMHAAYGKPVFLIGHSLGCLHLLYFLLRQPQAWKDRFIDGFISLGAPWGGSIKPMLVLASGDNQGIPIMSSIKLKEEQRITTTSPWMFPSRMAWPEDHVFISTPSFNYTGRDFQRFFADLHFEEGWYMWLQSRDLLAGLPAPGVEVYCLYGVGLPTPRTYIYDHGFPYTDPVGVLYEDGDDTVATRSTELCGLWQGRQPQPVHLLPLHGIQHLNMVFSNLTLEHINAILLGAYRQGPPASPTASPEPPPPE
Put plainly: LCAT Activity Measurement (In Vitro). The conditions noted are these: EC50 of LCAT activation; HDL3 fraction from plasma of a healthy person as enzyme source and acceptor; [14C]cholesterol; 37° C., approximately 16 hours. The assay is classed as biochemical. In outline: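 Human plasma HDL3 (1 mg/mL, PBS pH 7.4) served as enzyme and acceptor with [14C]cholesterol, 0.5 mM DTNB, 12.5 mM mercaptoethanol and 0.6% BSA; compounds in DMSO, incubated ~16 h at 37 °C. Cholesterol oleate radioactivity quantified after extraction and TLC; EC50 of activation fitted relative to no-drug control.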

pEC50: −log10 of the molar value.

As to `O=C1CC(O)(C(F)(F)F)c2c(C3CCN(c4ccc(Cl)cn4)CC3)n[nH]c2N1` (single isomer, unassigned; (-)) [Compound 50-1, (−)-3-[1-(5-Chloropyridin-2-yl)piperidin-4-yl]-4-hydroxy-4-(trifluoromethyl)-1,4,5,7-tetrahydro-6H-pyrazolo[3,4-b]pyridin-6-one], in the assay on cynomolgus monkey, the “Rate of increase in HDL level after administration of single dose” value (“Rate of increase in HDL level” for short) was 433%. This molecule also had a negative logarithm of the EC50 (pEC50) on LCAT of 7.35.

As to `O=C1CC(O)(C(F)(F)F)c2c(C3CCN(c4ccc(OC(F)F)cc4)CC3)n[nH]c2N1` (single isomer, unassigned; (-)) [Compound 56-1, (−)-3-{1-[4-(Difluoromethoxy)phenyl]piperidin-4-yl}-4-hydroxy-4-(trifluoromethyl)-1,4,5,7-tetrahydro-6H-pyrazolo[3,4-b]pyridin-6-one], the “Rate of increase in HDL level” value in the assay with cynomolgus monkey came to 644%. The negative-log EC50 (pEC50) at LCAT is 7.35.

Consider `O=C1CC(O)(C(F)(F)F)c2c(C3CCN(c4cccc(C(F)(F)F)n4)CC3)n[nH]c2N1` (stereo not drawn) [Example 7, 4-Hydroxy-4-(trifluoromethyl)-3-{1-[6-(trifluoromethyl)pyridin-2-yl]piperidin-4-yl}-1,4,5,7-tetrahydro-6H-pyrazolo[3,4-b]pyridin-6-one], for which, in the assay on cynomolgus monkey, the “Rate of increase in HDL level” value was determined as 334%. The molecule further had a negative logarithm of the EC50 (pEC50) at LCAT of 7.32.

For `O=C1CC(O)(C(F)(F)F)c2c(C3CCN(c4ccc(C(F)(F)F)cn4)CC3)n[nH]c2N1` (stereo not drawn) [Example 8, 4-Hydroxy-4-(trifluoromethyl)-3-{1-[5-(trifluoromethyl)pyridin-2-yl]piperidin-4-yl}-1,4,5,7-tetrahydro-6H-pyrazolo[3,4-b]pyridin-6-one], the “Rate of increase in HDL level” value with cynomolgus monkey stood at 531%. Moreover, the pEC50 at LCAT is 7.68.

In the case of `O=C1CC(O)(C(F)(F)F)c2c(C3CCN(c4ncc(C(F)(F)F)cc4Cl)CC3)n[nH]c2N1` (stereo not drawn) [Example 10, 3-{1-[3-Chloro-5-(trifluoromethyl)pyridin-2-yl]piperidin-4-yl}-4-hydroxy-4-(trifluoromethyl)-1,4,5,7-tetrahydro-6H-pyrazolo[3,4-b]pyridin-6-one], in the assay with cynomolgus monkey, the “Rate of increase in HDL level” value turned out to be 526%. For the same molecule, the pEC50 on LCAT was 6.68.

For `CN(C)c1nc(N2CCC(c3n[nH]c4c3C(O)(C(F)(F)F)CC(=O)N4)CC2)cc(C(F)(F)F)n1` (stereo not drawn) [Example 93, 3-{1-[2-(Dimethylamino)-6-(trifluoromethyl)pyrimidin-4-yl]piperidin-4-yl}-4-hydroxy-4-(trifluoromethyl)-1,4,5,7-tetrahydro-6H-pyrazolo[3,4-b]pyridin-6-one], the pEC50 at LCAT was 7.08.

Turning to `N#Cc1nc(N2CCC(c3n[nH]c4c3C(O)(C(F)(F)F)CC(=O)N4)CC2)ccc1C(F)(F)F` (stereo not drawn) [Example 94, 6-{4-[4-Hydroxy-6-oxo-4-(trifluoromethyl)-4,5,6,7-tetrahydro-1H-pyrazolo[3,4-b]pyridin-3-yl]piperidin-1-yl}-3-(trifluoro)pyridine-2-carbonitrile], the negative logarithm of the EC50 (pEC50) on LCAT is 7.82.

Regarding `N#Cc1cnc(N2CCC(c3n[nH]c4c3C(O)(C(F)(F)F)CC(=O)N4)CC2)cc1C(F)(F)F` (stereo not drawn) [Example 95, 6-{4-[4-Hydroxy-6-oxo-4-(trifluoromethyl)-4,5,6,7-tetrahydro-1H-pyrazolo[3,4-b]pyridin-3-yl]piperidin-1-yl}-4-(trifluoromethyl)pyridine-3-carbonitrile], the negative-log EC50 (pEC50) on LCAT is 7.43.

Turning to `O=C1CC(O)(C(F)(F)F)c2c(C3CCN(c4ncc(C(F)(F)F)cc4F)CC3)n[nH]c2N1` (stereo not drawn) [Example 96, 3-{1-[3-Fluoro-5-(trifluoromethyl)pyridin-2-yl]piperidin-4-yl}-4-hydroxy-4-(trifluoromethyl)-1,4,5,7-tetrahydro-6H-pyrazolo[3,4-b]pyridin-6-one], the pEC50 at LCAT is 6.66.

`O=C1CC(O)(C(F)(F)F)c2c(C3CCN(c4ccc(C(F)(F)F)c(F)n4)CC3)n[nH]c2N1` (stereo not drawn) [Example 97, 3-{1-[6-Fluoro-5-(trifluoromethyl)pyridin-2-yl]piperidin-4-yl}-4-hydroxy-4-(trifluoromethyl)-1,4,5,7-tetrahydro-6H-pyrazolo[3,4-b]pyridin-6-one] gave a negative-log EC50 (pEC50) at LCAT of 7.46.

As for `O=C1CC(O)(C(F)(F)F)c2c(C3CCN(c4ccc(C5CC5)cn4)CC3)n[nH]c2N1` (stereo not drawn) [Example 99, 3-[1-(5-Cyclopropylpyridin-2-yl)piperidin-4-yl]-4-hydroxy-4-(trifluoromethyl)-1,4,5,7-tetrahydro-6H-pyrazolo[3,4-b]pyridin-6-one], at LCAT, the pEC50 is 7.12.

Turning to `N#Cc1cccnc1N1CCC(c2n[nH]c3c2C(O)(C(F)(F)F)CC(=O)N3)CC1` (stereo not drawn) [Example 100, 2-{4-[4-Hydroxy-6-oxo-4-(trifluoromethyl)-4,5,6,7-tetrahydro-1H-pyrazolo[3,4-b]pyridin-3-yl]piperidin-1-yl}pyridine-3-carbonitrile], the negative-log EC50 (pEC50) on LCAT is 5.81.

Consider `N#Cc1cc(C(F)(F)F)cnc1N1CCC(c2n[nH]c3c2C(O)(C(F)(F)F)CC(=O)N3)CC1` (stereo not drawn) [Example 101, 2-{4-[4-Hydroxy-6-oxo-4-(trifluoromethyl)-4,5,6,7-tetrahydro-1H-pyrazolo[3,4-b]pyridin-3-yl]piperidin-1-yl}-5-(trifluoromethyl)pyridine-3-carbonitrile], for which the pEC50 on LCAT is 6.77.

For the molecule `O=C1CC(O)(C(F)(F)F)c2c(C3CCN(c4cc(I)c(C(F)(F)F)cn4)CC3)n[nH]c2N1` (stereo not drawn) [Example 102, 4-Hydroxy-3-{1-[4-iodo-5-(trifluoromethyl)pyridin-2-yl]piperidin-4-yl}-4-(trifluoromethyl)-1,4,5,7-tetrahydro-6H-pyrazolo[3,4-b]pyridin-6-one], the negative-log EC50 (pEC50) at LCAT is 7.68.

For the molecule `N#Cc1cnc(N2CCC(c3n[nH]c4c3C(O)(C(F)(F)F)CC(=O)N4)CC2)c(C(F)(F)F)c1` (stereo not drawn) [Example 104, 6-{4-[4-Hydroxy-6-oxo-4-(trifluoromethyl)-4,5,6,7-tetrahydro-1H-pyrazolo[3,4-b]pyridin-3-yl]piperidin-1-yl}-5-(trifluoromethyl)pyridine-3-carbonitrile], the pEC50 at LCAT was 5.96.

Regarding `O=C1CC(O)(C(F)(F)F)c2c(C3CCN(c4ccc(-c5ccccc5)nn4)CC3)n[nH]c2N1` (stereo not drawn) [Example 105, 4-Hydroxy-3-[1-(6-phenylpyridazin-3-yl)piperidin-4-yl]-4-(trifluoromethyl)-1,4,5,7-tetrahydro-6H-pyrazolo[3,4-b]pyridin-6-one], the negative-log EC50 (pEC50) on LCAT was 7.57.

One may read the pEC50 as the EC50 on a negative log10 scale, so that one unit is a factor of ten.
